In brackets after ≈: the same amount, converted by molar mass. Where two headings read alike, the source gives them in different places.
Legend:
Experiment in all cases: MIC, microdilution broth method (NCCLS)
Format in all cases: cell-based
E. coli OC2605 = settings: Escherichia coli
Outline: (§1)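 NCCLS M7-A4 broth microdilution: two-fold drug dilutions in cation-adjusted Mueller-Hinton broth, inoculum approximately 5×10^4 CFU/well. Trays incubated at 35 °C for 16-20 hours. MIC read by comparing growth to compound-free growth controls.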

E. faecalis ATCC29212 = settings: Enterococcus faecalis, read-out: MIC Values, C: E. faecalis ATCC29212
Outline: as §1

H. influenzae ATCC49247 = settings: Haemophilus influenzae, read-out: MIC Values, E: H. influenzae ATCC49247
Outline: as §1

S. aureus ATCC29213 = settings: Staphylococcus aureus, read-out: MIC Values, B: S. aureus ATCC29213
Outline: as §1

S. pneumoniae ATCC49619 = settings: Streptococcus pneumoniae, read-out: MIC Values, D: S. pneumoniae ATCC49619
Outline: as §1

[1] = Table 2, 3,6-Dicarbamoyl Macrolide Derivatives, read-out: MIC Values, A: E. coil OC2605
[2] = Table 2, 3,6-Dicarbamoyl Macrolide Derivatives
[3] = Table 1, 6-Carbamoyl-3-Acyl Macrolide Derivatives, read-out: MIC Values, A: E. coli OC2605
[4] = Table 1, 6-Carbamoyl-3-Acyl Macrolide Derivatives

| SMILES | MIC (E. coli OC2605; [1]) | MIC (E. faecalis ATCC29212; [2]) | MIC (H. influenzae ATCC49247; [2]) | MIC (S. aureus ATCC29213; [2]) | MIC (S. pneumoniae ATCC49619; [2]) | MIC (E. coli OC2605; [3]) | MIC (E. faecalis ATCC29212; [4]) | MIC (H. influenzae ATCC49247; [4]) | MIC (S. aureus ATCC29213; [4]) | MIC (S. pneumoniae ATCC49619; [4]) |
| --- | --- | --- | --- | --- | --- | --- | --- | --- | --- | --- |
| CC[C@H]1OC(=O)[C@H](C)[C@@H](OC(=O)N(CC)c2cccnc2)[C@H](C)[C@@H](O[C@@H]2O[C@H](C)C[C@H](N(C)C)[C@H]2O)[C@](C)(OC(=O)NC/C=C/c2ccc(-c3ncccn3)cc2)C[C@@H](C)C(=O)[C@H](C)[C@H]2NC(=O)O[C@@]21C [Compound 65] | > 16 µg/mL | 1 µg/mL (≈ 1.01 µM) | 8 µg/mL (≈ 8.11 µM) | 1 µg/mL (≈ 1.01 µM) | 0.25 µg/mL (≈ 0.254 µM) |  |  |  |  |  |
| CC[C@H]1OC(=O)[C@H](C)[C@@H](OC(=O)Nc2ccc(Cl)c(Cl)c2)[C@H](C)[C@@H](O[C@@H]2O[C@H](C)C[C@H](N(C)C)[C@H]2O)[C@](C)(OC(=O)NC/C=C/c2ccc(-c3ncccn3)cc2)C[C@@H](C)C(=O)[C@H](C)[C@H]2NC(=O)O[C@@]21C [Compound 54] | > 16 µg/mL | 2 µg/mL (≈ 1.95 µM) | 16 µg/mL (≈ 15.6 µM) | 2 µg/mL (≈ 1.95 µM) | 0.5 µg/mL (≈ 0.487 µM) |  |  |  |  |  |
| CC[C@H](C)C(=O)O[C@H]1[C@H](C)[C@@H](O[C@@H]2O[C@H](C)C[C@H](N(C)C)[C@H]2O)[C@](C)(OC(=O)NC/C=C/c2ccc(-c3ncccn3)cc2)C[C@@H](C)C(=O)[C@H](C)[C@H]2NC(=O)O[C@]2(C)[C@@H](CC)OC(=O)[C@@H]1C [Compound 15] |  |  |  |  |  | > 16 µg/mL | 0.5 µg/mL (≈ 0.542 µM) | 4 µg/mL (≈ 4.34 µM) | 0.5 µg/mL (≈ 0.542 µM) | 0.06 µg/mL (≈ 0.0651 µM) |
| CC[C@H]1OC(=O)[C@H](C)[C@@H](OC(=O)Nc2ccc(OC)nc2)[C@H](C)[C@@H](O[C@@H]2O[C@H](C)C[C@H](N(C)C)[C@H]2O)[C@](C)(OC(=O)NC/C=C/c2ccc(-c3ncccn3)cc2)C[C@@H](C)C(=O)[C@H](C)[C@H]2NC(=O)O[C@@]21C [Compound 50] | > 16 µg/mL | 0.5 µg/mL (≈ 0.506 µM) | 4 µg/mL (≈ 4.05 µM) | 1 µg/mL (≈ 1.01 µM) | 0.12 µg/mL (≈ 0.121 µM) |  |  |  |  |  |
| CC[C@H]1OC(=O)[C@H](C)[C@@H](OC(=O)CCc2cccnc2)[C@H](C)[C@@H](O[C@@H]2O[C@H](C)C[C@H](N(C)C)[C@H]2O)[C@](C)(OC(=O)NC/C=C/c2ccc(-c3ncccn3)cc2)C[C@@H](C)C(=O)[C@H](C)[C@H]2NC(=O)O[C@@]21C [Compound 3] |  |  |  |  |  | > 16 µg/mL | 0.25 µg/mL (≈ 0.257 µM) | 2 µg/mL (≈ 2.06 µM) | 0.5 µg/mL (≈ 0.515 µM) | 0.06 µg/mL (≈ 0.0618 µM) |
| CC[C@H]1OC(=O)[C@H](C)[C@@H](OC(=O)c2cccnc2)[C@H](C)[C@@H](O[C@@H]2O[C@H](C)C[C@H](N(C)C)[C@H]2O)[C@](C)(OC(=O)NC/C=C/c2ccc(-c3ncccn3)cc2)C[C@@H](C)C(=O)[C@H](C)[C@H]2NC(=O)O[C@@]21C [Compound 7] |  |  |  |  |  | > 16 µg/mL | 0.5 µg/mL (≈ 0.53 µM) | 8 µg/mL (≈ 8.48 µM) | 1 µg/mL (≈ 1.06 µM) | 0.06 µg/mL (≈ 0.0636 µM) |

More lines, in order of falling MIC (E. coli OC2605; [3]), values ahead:

| MIC (E. coli OC2605; [1]) | MIC (E. faecalis ATCC29212; [2]) | MIC (H. influenzae ATCC49247; [2]) | MIC (S. aureus ATCC29213; [2]) | MIC (S. pneumoniae ATCC49619; [2]) | MIC (E. coli OC2605; [3]) | MIC (E. faecalis ATCC29212; [4]) | MIC (H. influenzae ATCC49247; [4]) | MIC (S. aureus ATCC29213; [4]) | MIC (S. pneumoniae ATCC49619; [4]) | SMILES |
| --- | --- | --- | --- | --- | --- | --- | --- | --- | --- | --- |
|  |  |  |  |  | 16 µg/mL (≈ 16.7 µM) | 0.25 µg/mL (≈ 0.261 µM) | 2 µg/mL (≈ 2.09 µM) | 0.5 µg/mL (≈ 0.522 µM) | 0.06 µg/mL (≈ 0.0627 µM) | CC[C@H]1OC(=O)[C@H](C)[C@@H](OC(=O)Cc2ccncc2)[C@H](C)[C@@H](O[C@@H]2O[C@H](C)C[C@H](N(C)C)[C@H]2O)[C@](C)(OC(=O)NC/C=C/c2ccc(-c3ncccn3)cc2)C[C@@H](C)C(=O)[C@H](C)[C@H]2NC(=O)O[C@@]21C [Compound 8] |
|  |  |  |  |  | 16 µg/mL (≈ 17.4 µM) | 0.5 µg/mL (≈ 0.543 µM) | 2 µg/mL (≈ 2.17 µM) | 1 µg/mL (≈ 1.09 µM) | 0.06 µg/mL (≈ 0.0651 µM) | CC[C@H]1OC(=O)[C@H](C)[C@@H](OC(=O)Cc2cccnc2)[C@H](C)[C@@H](O[C@@H]2O[C@H](C)C[C@H](N(C)C)[C@H]2O)[C@](C)(OC(=O)NC/C=C/c2cnc(C3CC3)nc2)C[C@@H](C)C(=O)[C@H](C)[C@H]2NC(=O)O[C@@]21C [Compound 39] |
|  |  |  |  |  | 16 µg/mL (≈ 19.3 µM) | 0.25 µg/mL (≈ 0.301 µM) | 1 µg/mL (≈ 1.2 µM) | 0.5 µg/mL (≈ 0.602 µM) | 0.06 µg/mL (≈ 0.0722 µM) | CC[C@H]1OC(=O)[C@H](C)[C@@H](OC(=O)C(C)C)[C@H](C)[C@@H](O[C@@H]2O[C@H](C)C[C@H](N(C)C)[C@H]2O)[C@](C)(OC(=O)NC/C=C/c2cccnc2)C[C@@H](C)C(=O)[C@H](C)[C@H]2NC(=O)O[C@@]21C [Compound 17] |
|  |  |  |  |  | 16 µg/mL (≈ 16.9 µM) | 0.25 µg/mL (≈ 0.264 µM) | 2 µg/mL (≈ 2.11 µM) | 0.5 µg/mL (≈ 0.528 µM) | 0.03 µg/mL (≈ 0.0317 µM) | CC[C@H]1OC(=O)[C@H](C)[C@@H](OC(=O)Cc2cccnc2)[C@H](C)[C@@H](O[C@@H]2O[C@H](C)C[C@H](N(C)C)[C@H]2OC(C)=O)[C@](C)(OC(=O)NCc2cnc3ccccc3c2)C[C@@H](C)C(=O)[C@H](C)[C@H]2NC(=O)O[C@@]21C [Compound 22] |
